Measurements from publication doi:10.1101/2023.07.10.548257 (bioRxiv, 2024).
Where a chain is given by its changes, count along the chain named.

Key:
[1] = target: T1, full-length SHP2^WT (Homo sapiens, UniProt Q06124); assay: SHP2 activation assay using phosphopeptides (DiFMUP), SHP2 WT; format: biochemical; settings: activation of full-length SHP2 WT (0.05 nM) by phosphopeptide; DiFMUP substrate; 60 mM HEPES pH 7.2, 75 mM KCl, 75 mM NaCl, 1 mM EDTA, 0.05% Tween-20, 0.5 mM TCEP; fluorescence read every 25 s for 6 min; mean of N (column N)
T1 construct: Full-length SHP2 constructs were diluted in assay buffer; His6-TEV (N, cleaved yes); made in house; host or cells: E. coli BL21(DE3)
T1 sequence (Q06124 1-593): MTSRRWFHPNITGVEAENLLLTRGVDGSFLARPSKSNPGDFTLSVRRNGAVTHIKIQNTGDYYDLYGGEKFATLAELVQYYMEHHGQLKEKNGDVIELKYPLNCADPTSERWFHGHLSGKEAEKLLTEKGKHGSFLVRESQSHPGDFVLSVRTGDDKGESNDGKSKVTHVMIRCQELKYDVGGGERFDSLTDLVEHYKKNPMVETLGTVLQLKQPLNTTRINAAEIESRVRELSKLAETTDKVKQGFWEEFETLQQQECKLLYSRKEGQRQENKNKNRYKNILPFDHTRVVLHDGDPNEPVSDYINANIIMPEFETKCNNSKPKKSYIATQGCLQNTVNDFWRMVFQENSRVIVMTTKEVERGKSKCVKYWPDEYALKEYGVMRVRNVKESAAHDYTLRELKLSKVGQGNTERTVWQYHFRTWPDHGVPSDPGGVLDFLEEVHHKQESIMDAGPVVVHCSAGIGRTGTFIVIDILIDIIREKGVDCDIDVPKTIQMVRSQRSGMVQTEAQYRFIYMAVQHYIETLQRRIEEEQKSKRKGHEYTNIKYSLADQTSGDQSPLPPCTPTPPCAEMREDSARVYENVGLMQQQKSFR
Method: SHP2 activation assays using phosphopeptides
Full-length SHP2 constructs were diluted in assay buffer (60 mM HEPES pH 7.2, 75 mM KCl, 75 mM NaCl,1 mM EDTA, 0.05% Tween-20, with 0.5 mM TCEP freshly added) to a 2X concentration of 0.1 nM. Peptides were serially diluted in assay buffer, with the last point of the concentration series fully without peptide. 15 μL of peptide and 15 μL of 800 μM DiFMUP was added to a black 96-well half area plate. Right before starting the plate reader assay, 30 μL SHP2 was added to each well a Supplementary Information - page 4 of 18 […]
final concentration of 0.05nM. Kinetic measurements (Ex 358/Em […]) were taken on a BioTek Neo2 plate reader every 25 seconds for 6 minutes. […]
OD600 reached 0.5. 20 mL of cell suspension was induced at 25 °C using a final concentration of 0.4% arabinose until the OD600 ~ 1 (after approximately 4 hours). The cells were spun down at 4000 rpm for 15 minutes, and the pellet was resuspended in PBS so that the OD600 ~1.5. The cells were stored in the fridge and used within a week.
For each sample, 75 μL of Dynabeads™ FlowComp™ Flexi Kit were washed twice in 1 mL SH2 buffer (50 mM HEPES pH 7.5, 150 mM NaCl, 1 mM TCEP, and 0.2% BSA) on a magnetic rack.
The beads were then resuspended in 75 μL of SH2 buffer. SH2 domains were thawed quickly and 20 μM of protein was added to the beads. SH2 buffer was added up to 150 μL, and the suspension was incubated for 1 hour at 4 °C while rotating. After 1 hour, the suspension was placed on a magnetic rack and washed twice with 1 mL SH2 buffer.
Preparing the phosphorylated cells
150 μL of prepared cells per sample were spun down for 4000 rpm for 5 minutes at 4 °C.
Kinase screen buffer was prepared (50 mM Tris, 10 mM magnesium chloride, 150 mM sodium chloride; add 2 mM sodium orthovanadate and 1 mM TCEP fresh) and the cells of each sample were resuspended in 100 μL kinase screen buffer. Kinases c-Src, c-Abl, AncSZ, Eph1B were added to a final concentration of 2.5 µM each, creatine phosphate was added to a final concentration of 5 mM, and phosphokinase was added to a final concentration of 50 µg/mL. The suspension was incubated at 37 °C for 5 minutes before ATP was added to a final concentration of 1 mM. This mixture was incubated at 37 °C for 3 hours. After 3 hours, EDTA was added to a final concentration of 25 mM to quench the reaction. The input library control sample was not phosphorylated. These cells were spun down at 4000 rpm for 15 minutes at 4 °C. The cells were then resuspended in 100 µL of SH2 buffer + 0.1% BSA. Phosphorylation of the cells was confirmed by labeling with the PY20-PerCP-eFluor 710 pan-phosphotyrosine antibody followed by analysis via flow cytometry.
Enriching for cells displaying high-affinity phosphopeptide ligands
100 μL of phosphorylated cells were mixed with 75 µL SH2-beads for 1 hour at 4 °C while rotating. After 1 hour, samples were placed on a magnetic rack, supernatant was removed and 1 mL SH2 buffer was added to each sample. This was rotated for 30 minutes at 4 °C to wash the beads.
After this wash, the beads were placed on a magnetic rack, the supernatant was removed and 50 µL […]
Preparing sequencing samples & deep sequencing
All SH2-selected samples and the input library control were resuspended in 50 µL MilliQ water, vortexed, and boiled for 10 minutes at 100 °C. The boiled lysate was used as the DNA template in a PCR reaction using the TruSeq-eCPX-Fwd and TruSeq-eCPX-Rev primers. The mixture resulting from this PCR was used directly into a second PCR to append Illumina sequencing adaptors and Supplementary Information - page 5 of 18

[2] = target: T2, full-length SHP2^T42A (Homo sapiens, UniProt Q06124, T42A); assay: SHP2 activation assay using phosphopeptides (DiFMUP), SHP2 T42A; format: biochemical; settings: activation of full-length SHP2 T42A (0.05 nM) by phosphopeptide; DiFMUP substrate; HEPES pH 7.2 assay buffer; mean of N (column N)
T2 construct: Full-length SHP2 constructs were diluted in assay buffer; His6-TEV (N, cleaved yes); made in house; host or cells: E. coli BL21(DE3)
T2 sequence (Q06124 1-593 T42A): T1 sequence (Q06124 1-593) with T42A

SMILES	EC50 [1] [µM]	EC50 [2] [µM]
CC(=O)N[C@@H](CO)C(=O)N[C@H](C(=O)NCC(=O)N[C@@H](CO)C(=O)N[C@H](C(=O)N[C@@H](CC(=O)O)C(=O)N[C@@H](Cc1ccc(OP(=O)(O)O)cc1)C(=O)N[C@@H](CC(C)C)C(=O)N[C@@H](C)C(=O)N[C@@H](CC(C)C)C(=O)N[C@@H](CC(=O)O)C(=O)N[C@@H](Cc1ccccc1)C(=O)N[C@@H](CCC(N)=O)C(N)=O)C(C)C)[C@@H](C)O	8.52	0.902
CC[C@H](C)[C@H](NC(=O)[C@H](CC(N)=O)NC(=O)[C@@H](NC(=O)[C@H](Cc1ccc(OP(=O)(O)O)cc1)NC(=O)[C@H](CCC(=O)O)NC(=O)CNC(=O)[C@@H]1CCCN1C(=O)[C@H](CO)NC(=O)[C@H](CCCCN)NC(=O)[C@@H]1CCCN1C(C)=O)C(C)C)C(=O)N[C@@H](CCC(=O)O)C(=O)N[C@@H](Cc1ccccc1)C(=O)NCC(N)=O	29.3	20
CC[C@H](C)[C@H](NC(=O)[C@@H](NC(=O)[C@H](C)NC(=O)[C@H](Cc1ccc(OP(=O)(O)O)cc1)NC(=O)[C@H](CCC(=O)O)NC(=O)[C@@H](NC(=O)[C@H](CCC(N)=O)NC(=O)[C@H](CCC(=O)O)NC(=O)[C@@H]1CCCN1C(=O)[C@@H](NC(C)=O)C(C)C)[C@@H](C)O)[C@@H](C)O)C(=O)N[C@H](C(=O)N[C@@H](Cc1ccccc1)C(=O)N1CCC[C@H]1C(N)=O)C(C)C	5.37	0.88
CC[C@H](C)[C@H](NC(=O)[C@H](Cc1ccc(OP(=O)(O)O)cc1)NC(=O)[C@H](CC(N)=O)NC(=O)[C@H](CC(C)C)NC(=O)CNC(=O)[C@H](CC(N)=O)NC(=O)[C@H](CCC(=O)O)NC(=O)[C@H](CC(C)C)NC(C)=O)C(=O)N[C@@H](CC(=O)O)C(=O)N[C@@H](CC(C)C)C(=O)N[C@@H](CC(=O)O)C(=O)N[C@@H](CC(C)C)C(=O)N[C@H](C(N)=O)C(C)C	1.75	0.581
CSCC[C@H](NC(=O)[C@H](CC(C)C)NC(=O)[C@H](CCC(N)=O)NC(=O)[C@H](C)NC(=O)[C@H](Cc1ccc(OP(=O)(O)O)cc1)NC(=O)[C@H](CC(N)=O)NC(=O)[C@H](CC(C)C)NC(=O)[C@H](C)NC(=O)[C@H](C)NC(=O)[C@H](CCCCN)NC(=O)[C@H](CCCCN)NC(C)=O)C(=O)N[C@@H](Cc1ccccc1)C(=O)N1CCC[C@H]1C(N)=O	1.32	0.735
CC(=O)N[C@@H](C)C(=O)N[C@@H](CCCCN)C(=O)N[C@@H](CO)C(=O)NCC(=O)N[C@@H](C)C(=O)N[C@H](C(=O)N[C@@H](Cc1ccc(OP(=O)(O)O)cc1)C(=O)N[C@@H](CO)C(=O)N[C@@H](CCC(=O)O)C(=O)N[C@@H](CC(C)C)C(=O)N[C@@H](CC(N)=O)C(=O)N[C@@H](Cc1ccccc1)C(=O)NCC(N)=O)C(C)C	233	32.7
CC[C@H](C)[C@H](NC(=O)[C@H](CC(=O)O)NC(=O)[C@H](C)NC(=O)[C@H](Cc1ccc(OP(=O)(O)O)cc1)NC(=O)[C@H](CCCCN)NC(=O)[C@@H](NC(=O)[C@H](CC(=O)O)NC(=O)CNC(=O)[C@H](CCCCN)NC(=O)[C@H](CCSC)NC(C)=O)C(C)C)C(=O)N[C@@H](CCC(=O)O)C(=O)N[C@@H](CO)C(=O)N[C@@H](CO)C(N)=O	90.5	15.1
CC(=O)N1CCC[C@H]1C(=O)N[C@H](C(=O)N[C@@H](Cc1ccccc1)C(=O)N[C@@H](CO)C(=O)N[C@H](C(=O)N[C@@H](CC(=O)O)C(=O)N[C@@H](Cc1ccc(OP(=O)(O)O)cc1)C(=O)NCC(=O)N[C@@H](CCC(=O)O)C(=O)N[C@@H](CC(C)C)C(=O)N[C@@H](CC(=O)O)C(=O)N[C@@H](Cc1ccccc1)C(=O)N[C@@H](CCC(N)=O)C(N)=O)C(C)C)C(C)C	18.9	2.89
CC[C@H](C)[C@H](NC(=O)[C@@H](NC(=O)[C@H](C)NC(=O)[C@H](Cc1ccc(OP(=O)(O)O)cc1)NC(=O)[C@@H](NC(=O)[C@@H]1CCCN1C(=O)[C@H](CCC(=O)O)NC(=O)[C@@H]1CCCN1C(=O)[C@H](CO)NC(=O)[C@@H](NC(C)=O)C(C)C)[C@@H](C)CC)[C@@H](C)O)C(=O)N[C@@H](CC(=O)O)C(=O)N[C@@H](CC(=O)O)C(=O)N[C@@H](CC(C)C)C(N)=O	39.4	6.96
